The source of these data is patent US10578610B2, “Peptide regulators of mitochondrial fusion and methods of use” (priority 2016, dated 2020).

The test system of assay [1] is mitochondrial mitofusins in WT MEFs. Put plainly: Confocal localization of FITC-labeled TAT-minipeptides. Format: cell-based, murine. On the procedure:
The above results support the premise that TAT-conjugated Mfn2 minipeptides affect mitochondrial fusion by modulating Mfn1 and Mfn2 conformation according to the dynamic structure model depicted in FIGS. 3A-3C. Additional studies were performed to validate this mechanism of action using the minipeptide-Mfn2 binding assay procedure. Confocal localization of FITC-labeled TAT-minipeptides in WT MEFs and Mfn null MEFs (Mfn1/Mfn2 DKO) was used for analysis of interaction between the minipeptides and mitochondrial mitofusins. Mitochondria were stained with MitoTracker Orange; nucleus was stained with Blue Hoechst. Line-scans were generated for the confocal photographs.
Thus, cell-internalized TAT-conjugated Mfn2 HR1 minipeptides bind specifically to mitochondrial mitofusins.

The test system of assay [2] is Mfn null MEFs expressing Mfn2 K109A or Mfn2 AA. Put plainly: TAT-minipeptides in Mfn null MEFs expressing Mfn2 mutants. The conditions noted are these: for mitochondrial morphology: Mfn null MEFs expressing Mfn2 AA. Format: cell-based, murine. From the text:
The efficacy of the minipeptides to correct mitochondrial abnormalities in Mfn null MEFs was further evaluated. In this experiment, several Mfn2 mutants having well-characterized and diverse functional profiles were introduced into Mfn null MEFs. As shown above, mitochondria of MEFs lacking Mfn1 and Mfn2 are highly fragmented. Adenoviral reintroduction of WT Mfn2 corrected dysmorphology in Mfn null MEFs and was required for TAT minipeptides to alter mitochondrial fusion in these cells (FIGS. 12A-12B). By contrast, adenoviral expression of mouse Mfn2 K109A, a GTPase defective mutant (Detmer and Chan, 2007, J Cell Biol, 176:405-414), had no effect on mitochondrial fragmentation in Mfn null MEFs. […] Mitochondrial morphometry in Mfn null MEFs expressing fusion-impaired Mfn2 EE, which has glutamate substitutions to mimic phosphorylation at Mfn2 T111 and […], was more variable (FIG. 12A-12B).

The target in the next assay is T1, human Mfn2 (Homo sapiens, UniProt O95140).
T1 sequence (O95140 1-757): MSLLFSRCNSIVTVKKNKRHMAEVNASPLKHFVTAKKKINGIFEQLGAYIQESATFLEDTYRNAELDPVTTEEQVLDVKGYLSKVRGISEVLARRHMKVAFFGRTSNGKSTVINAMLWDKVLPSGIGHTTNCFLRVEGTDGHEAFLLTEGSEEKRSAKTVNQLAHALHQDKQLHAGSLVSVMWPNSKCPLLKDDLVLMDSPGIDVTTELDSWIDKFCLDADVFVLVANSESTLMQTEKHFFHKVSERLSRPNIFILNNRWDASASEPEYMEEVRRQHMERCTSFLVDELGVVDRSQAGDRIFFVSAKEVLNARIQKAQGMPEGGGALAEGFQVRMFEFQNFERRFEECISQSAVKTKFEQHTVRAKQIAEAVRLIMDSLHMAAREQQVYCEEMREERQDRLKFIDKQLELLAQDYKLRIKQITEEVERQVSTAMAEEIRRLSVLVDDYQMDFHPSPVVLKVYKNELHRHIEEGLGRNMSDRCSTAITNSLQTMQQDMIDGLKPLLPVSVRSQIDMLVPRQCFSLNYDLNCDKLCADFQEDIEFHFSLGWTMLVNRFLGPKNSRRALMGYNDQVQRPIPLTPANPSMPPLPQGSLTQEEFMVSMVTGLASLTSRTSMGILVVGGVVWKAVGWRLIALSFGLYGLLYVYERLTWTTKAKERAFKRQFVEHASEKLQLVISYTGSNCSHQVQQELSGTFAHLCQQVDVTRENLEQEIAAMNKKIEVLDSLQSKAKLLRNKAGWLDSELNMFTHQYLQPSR
Put plainly: Mfn2 GTPase assay. It is filed as biochemical. Set-up: purchased OriGene. The conditions noted are these: 1 M peptide 15 minutes, then 0.5 mM GTP 1 hour 37° C.; data not shown. On the procedure:
Minipeptide effects on Mfn2 GTPase activity were evaluated using a modification of a previously described method (Qi X et al., 2013, J Cell Sci 126:789-802). Briefly, recombinant Mfn2 (100 ng, OriGene, Rockville, Md.) was incubated with […] control TAT peptide, TAT-367-384Gly, or TAT-398-418Gly for 15 minutes prior to addition of 0.5 mM GTP for 1 hour at 37° C. GTPase activity relative to no-peptide control was measured using a colorimetric GTPase assay kit (Novus Biologicals, Littleton, Colo.) following the manufacturer's instructions.

Assay [3] relates to mice subjected to cerebral ischemia. Put plainly: Temporary middle cerebral artery (MCA) occlusion followed by reperfusion. Format: in vivo. On the procedure:
Studies were done to study the effects of TetherX-1 (SEQ ID NO:24) administration on cerebral tissue damage in mice in which ischemia was induced. In this blinded and placebo-controlled studies, 40 mice were subjected to temporary (40 minutes) middle cerebral artery (MCA) occlusion followed by reperfusion for 24 hours. Brains were removed and analyzed for direct and indirect infarct area and volume. […] Moreover, TetherX-1 administration reduced cerebral deficit (FIG. 20) and cerebral swelling (FIG. 21).

Assay [4] concerns cultured rat motor neurons infected with adeno-Mfn2 K109A. Put plainly: Motor neurons infected with adeno-Mfn2 K109A. It is filed as cell-based. The conditions noted are these: 1 μM for 24 hours vs TAT control. The protocol:
The efficacy of TAT-367-384Gly to correct mitochondrial pathology induced by a GTPase-defective Mfn2 mutant was examined in the CMT2A-relevant cell type, motor neurons. Motor neurons were isolated from E17 Sprague-Dawley rats and cultured as described in Wang et al., 2013, Hum Mol Genet 22:4706-4719. After 10 days in culture, neurons were infected twice, 8 hours apart, with 50 MOI of adenoviral WT-Mfn2 or K109A Mfn2 and treated with 1 μM TAT-367-384 Gly or control TAT peptide for 24 hours. Mitochondria of formalin-fixed nerons were labeled with anti-TOM20 (Santa Cruz Biotechnology). Neurons were stained with Hoechst 33342. Laser confocal imaging using a 63× oil objective was used to identify isolated mitochondria for determination of aspect ratio.
Representative anti-TOM20/Hoechst images of formalin-fixed cultured neurons infected with adeno-Mfn2K109A (FIG. 15A) or adeno-WT Mfn2 (FIG. 15B) and treated for 24 h with 1 μM TAT control (Ctrl) or TAT-367-384Gly minipeptide. Scale bars are 10 microns. N=20-23 per treatment group; *=P<0.05 vs Ctrl (Student's t-test).

Where [5] appears, read: 3 mg/kg intravenously 1 hour before ischemia and immediately prior to reperfusion, vs vehicle.
Setting [6] is: 3 mg/kg intravenously, vs vehicle.
Where [7] appears, read: Mfn null MEFs expressing only Mfn2 K109A.

Ends that are not written are not given here.

Turning to “QDRLKFIDKQGELLAQDYKLRGGYGRKKRRQRRR [TAT-398-418Gly]”, in assay [1], the “localization of FITC-labeled TAT-peptide to mitochondria” value is “decorated mitochondria”. The mitochondrial morphology result in assay [2] is “mitochondrial shortening”. For the same sequence, the “Mfn2 GTPase activity” value on human Mfn2 is reported as “without altering Mfn2 GTPase activity”. Further, the direct infarct area entry in assay [3] (3 mg/kg intravenously 1 hour before ischemia and immediately prior to reperfusion, 40 minutes MCA occlusion, reperfusion 24 hours, vs vehicle (water)) is recorded as “decrease”. In assay [3] (setting [5]), the direct infarct volume result is reported as “decrease”, the indirect infarct area result is given as “decrease” and the indirect infarct volume entry is “decrease”. In addition, in assay [3] (setting [6]), the cerebral deficit result is given as “reduced” and the cerebral swelling result is recorded as “reduced”.
Consider “QIAEAVRGIMDSLHMAARGGYGRKKRRQRRR [TAT-367-384Gly]”, for which, in assay [1], the “localization of FITC-labeled TAT-peptide to mitochondria” value is “decorated mitochondria”. Besides, in assay [2], the mitochondrial morphology entry is recorded as “mitochondrial hyper-elongation”. Moreover, in assay [2] (setting [7]), the “mitochondrial aspect ratio / mitochondrial pathology” value is “did not correct mitochondrial pathology” and the mitochondrial clumping entry is listed as “mitochondrial clumping induced”. Also, the “Mfn2 GTPase activity” value on human Mfn2 is “without altering Mfn2 GTPase activity”. The “mitochondrial fragmentation (aspect ratio)” value in assay [4] was “fully normalized”.
